Laboratory results as given in US20030220310A1, “Epoxy-steroidal aldosterone antagonist and calcium channel blocker combination therapy for treatment of congestive heart failure” (priority 2003, published 2003).

Tests used:
[1] = Single crystal X-ray structure, unit cell parameters; assay type: physicochemical; details: for R: crystal structure determination; for Volume / ρ (calculated): unit cell; for Z / a / b / c / α / β / γ: unit cell parameter; for Isostructural to Methyl Ethyl ketone Solvate?: eplerenone crystalline solvate
Excerpt: Tables 8, 9 and 10 below summarize the unit cell parameters determined for Form H, Form L, and several solvated crystalline forms. […]

[2] = Thermogravimetric analysis of solvates (desolvation); assay type: physicochemical; details: eplerenone crystalline solvate; extrapolated from final solvent weight loss step, TGA, 10° C./minute, nitrogen purge
Description: Thermogravimetric analysis of solvates was performed using a TA Instruments TGA 2950 thermogravimetric analyzer. Samples were placed in an unsealed aluminum pan under nitrogen purge. Starting temperature was 25° C. with the temperature increased at a rate of about 10° C./minute.

[3] = system: myocardial fibrosis in animal models; details: cited from earlier work

Row | Compound | Isostructural to Methyl Ethyl ketone Solvate? [1] | Desolvation Temperature [2] | also measured
1 | COC(=O)[C@@H]1CC2=CC(=O)CC[C@]2(C)C2=CC[C@@]3(C)C(CCC34CCC(=O)O4)C21 (stereo partly drawn) [9,11 olefin] |  |  | R [1]: 0.0764; Volume [1]: 2069.3 Å; ρ (calculated) [1]: 1.279 g/mL; Z [1]: 4; a [1]: 20.90 Å Å; b [1]: 15.74 Å Å; c [1]: 6.29 Å Å; α [1]: 90°; β [1]: 90°; γ [1]: 90°
2 | CC(=O)O [Acetic Acid] | Yes |  | 
3 | CC(C)=O [Acetone] | Yes | 117 °C | 
4 | CCCCOC(C)=O [Butyl Acetate] | Yes | 108 °C | 
5 | ClC(Cl)Cl [Chloroform] | Yes | 125 °C | 
6 | CCO [Ethanol] | Yes | 166 °C | 
7 | CCOC(=O)CC [Ethyl Propionate] | Yes | 122 °C | 
8 | CC(=O)OCC(C)C [Isobutyl Acetate] | Yes | 112 °C | 
9 | CC(C)O [Isopropanol] | Yes | 121 °C | 
10 | COC(C)=O [Methyl Acetate] | Yes | 103 °C | 
11 | CCC(C)=O [Methyl Ethyl Ketone] |  | 89 °C | 
12 | CCCOC(C)=O [Propyl Acetate] | Yes | 130 °C | 
13 | CC(O)CO (stereo not drawn) [Propylene Glycol] | Yes | 188 °C | 
14 | C1CCOC1 [Tetrahydrofuran] | Yes | 136 °C | 
15 | Cc1ccccc1 [Toluene] | Yes | 83 °C | 
16 | COC(=O)[C@@H]1CC23O[C@@H]2C(=O)CC[C@]3(C)[C@@]23OC2C[C@@]2(C)C(CCC24CCC(=O)O4)C13 (stereo partly drawn) [diepoxide, 7-methyl hydrogen 4α,5α:9α,11α-diepoxy-17-hydroxy-3-oxo-17α-pregnane-7α,21-dicarboxylate, γ-lactone] |  |  | R [1]: 0.0762; Volume [1]: 2119.0 Å; ρ (calculated) [1]: 1.349 g/mL; Z [1]: 4; a [1]: 21.328 Å Å; b [1]: 16.16 Å Å; c [1]: 6.15 Å Å; α [1]: 90°; β [1]: 90°; γ [1]: 90°
17 | CCCCO [n-Butanol] | Yes | 103 °C | 
18 | CCCCCCCCO [n-Octanol] | Yes | 116 °C | 
19 | CCCO [n-Propanol] | Yes |  | 
20 | CC(=O)S[C@@H]1CC2=CC(=O)CC[C@]2(C)[C@H]2CC[C@@]3(C)[C@@H](CC[C@@]34CCC(=O)O4)[C@H]12 [spironolactone] |  |  | myocardial fibrosis [3]: prevents myocardial fibrosis
21 | CC(=O)OC(C)(C)C [t-Butyl Acetate] | Yes | 109 °C | 
